Experiment [1] deals with T1, TDP2 (Homo sapiens (Human), UniProt O95551). The experiment in a line: gel-based TDP2 fluorescence assay in vitro. It is filed as biochemical. As to conditions: for inhibition of TDP2, primary screen: 111 μM, preincubation with TDP2 at room temperature overnight.
The target of experiment [2] is T2, TDP1 (Homo sapiens (Human), UniProt Q9NUW8). As to the kind of experiment: Degradation assay (western blotting) of TDP1 in HCT116 and HEK293 cells. In kind it is cell-based. As to conditions: for TDP1 degradation by covalent inhibitors: FIG. 39; for TDP1 degrading activity: list in description; for TDP1 degradation in cells: 200 uM concentration. The method, then:
The degradation effect of the TDP1 inhibitors on TDP1 in human colon cancer cell line HCT116 and embryonic kidney cell line HEK293 were studied. Cells were first seeded in a 6-well plate until 60-80% confluency and then incubated with a serial dilution of TDP1 inhibitors at the range of 25-200 μM for 24-72 h at 37° C. […] Samples were then sonicated at 30% for 10 s and centrifuged for 15 min at 15000 rpm at 4 Celsius. Supernatant were collected and the concentration of total protein were measured by BCA Protein Assay Kit according to its protocols. Four micrograms of total protein for each sample were loaded and TDP1 level were conducted by western blotting.

Experiment [3] concerns the target T2, TDP1. The experiment in a line: TDP1 gel-based in vitro fluorescence assay. To be noted: for inhibition of TDP1, primary screen: 111 μM, preincubation with TDP1 at room temperature overnight; for selectivity compared with TDP2, secondary screen: preincubation overnight at room temperature; for inhibition, secondary screen: preincubation with TDP overnight at room temperature. It is filed as biochemical.

Experiment [4] deals with T1, TDP2. As to the kind of experiment: TDP2 degrading activity as stated in the description. As to conditions: list in description.
The test system of experiment [5] is human colon cancer cell line HCT116. The experiment in a line: Synergistic effect with camptothecin (CPT) based on cell viability. As to conditions: for synergy with camptothecin: list in description; for Synergy Score: with camptothecin (CPT), HCT116, 72 h, SynergyFinder 2.0. As to the method: The synergistic effects of the TDP1 inhibitors with CPT were tested in human colon cancer cell line HCT116 based on cell viability (Table 3, FIGS. 2-5). Cells were first seeded in a 384-well black-clear plate until 30% confluency and then incubated with a serial dilution of CPT at the range of 0-100 nM in the present or the absence of TDP1 inhibitors for 72 h at 37° C. Viable cell numbers were counted from the brightfield images taken by Biotek Cytation 5 (FIGS. 2-3). Fractional affect (Fa) and combination index (Ci) were analyzed with CompuSyn software. Synergistic scores of each TDP1 inhibitors were calculated and collected based on the data analysis from SynergyFinder (FIG. 4). […]

Where [6] appears, read: Table 7, HPLC-purified oxime leads, read-out: TDP2 IC50.
The mark [7] stands for this setting: Table 7, ratio of IC50 TDP2 to TDP1.
Setting [8] is: Table 8, lead compounds with different linkers, read-out: TDP2 IC50.
The mark [9] stands for this setting: Table 8, lead compounds with different linkers, read-out: TDP1 IC50.
[10] abbreviates: Table 9, fluorosulfates and sulfonyl fluorides, read-out: TDP2 IC50.
Where [11] appears, read: Table 9, fluorosulfates and sulfonyl fluorides, read-out: TDP1 IC50.
[12] abbreviates: Table 8, ratio of IC50 TDP2 to TDP1.
The mark [13] stands for this setting: purified oximes, read-out: TDP2 IC50.
The mark [14] stands for this setting: purified oximes and SMM leads, read-out: TDP1 IC50.

Where two headings read alike, the source gives them in different places.

T2 sequence (Q9NUW8 whole entry): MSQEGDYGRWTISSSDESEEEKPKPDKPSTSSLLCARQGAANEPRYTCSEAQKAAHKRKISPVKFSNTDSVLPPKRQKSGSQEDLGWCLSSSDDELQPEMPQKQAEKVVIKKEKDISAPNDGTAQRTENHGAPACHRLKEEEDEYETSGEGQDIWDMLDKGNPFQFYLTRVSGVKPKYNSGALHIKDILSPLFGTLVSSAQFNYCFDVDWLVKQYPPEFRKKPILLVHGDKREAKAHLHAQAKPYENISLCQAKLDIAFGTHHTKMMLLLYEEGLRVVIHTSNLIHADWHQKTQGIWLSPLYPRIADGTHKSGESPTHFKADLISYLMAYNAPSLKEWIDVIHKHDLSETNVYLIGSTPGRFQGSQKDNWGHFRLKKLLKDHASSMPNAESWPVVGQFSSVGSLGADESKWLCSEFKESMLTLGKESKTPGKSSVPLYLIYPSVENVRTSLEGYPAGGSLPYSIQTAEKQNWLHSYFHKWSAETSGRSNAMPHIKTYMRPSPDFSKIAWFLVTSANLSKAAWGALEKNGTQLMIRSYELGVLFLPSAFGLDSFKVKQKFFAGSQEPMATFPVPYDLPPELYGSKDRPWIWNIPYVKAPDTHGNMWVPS
T1 sequence (O95551 whole entry, species assumed): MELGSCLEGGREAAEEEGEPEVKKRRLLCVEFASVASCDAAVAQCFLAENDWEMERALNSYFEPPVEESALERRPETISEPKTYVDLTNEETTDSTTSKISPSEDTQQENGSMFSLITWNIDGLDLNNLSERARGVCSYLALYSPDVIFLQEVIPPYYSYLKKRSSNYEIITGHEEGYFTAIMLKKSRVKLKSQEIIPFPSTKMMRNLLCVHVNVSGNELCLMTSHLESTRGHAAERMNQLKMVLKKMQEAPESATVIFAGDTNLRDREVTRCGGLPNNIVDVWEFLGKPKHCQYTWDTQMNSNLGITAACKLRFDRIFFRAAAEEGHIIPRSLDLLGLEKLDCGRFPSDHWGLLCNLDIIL

Consider `O=C(O)c1ccc(Nc2c(-c3ccccc3OS(=O)(=O)F)nc3cc(-c4ccccc4)ccn23)cc1` [XZ730, 4-((2-(2-((Fluorosulfonyl)oxy)phenyl)-7-phenylimidazo[1,2-a]pyridin-3-yl)amino)benzoic acid], for which, on TDP2 [1], the IC50 was found to be 39.5 µM and the “inhibition of TDP2, primary screen” value was “inhibition”. Further, on TDP1 [2], the “TDP1 degradation by covalent inhibitors” value is on record as “degrade TDP1” and the TDP1 degrading activity entry is given as “exhibit TDP1 degrading activity”. Further, at TDP1 [3], half-maximal inhibition (IC50) required 17.8 µM; the “inhibition of TDP1, primary screen” value is “inhibition”; the “selectivity compared with TDP2, secondary screen” value turned out to be 2 fold; the “inhibition, secondary screen” value is recorded as “μM inhibition”. The TDP2 degrading activity entry on TDP2 [4] is on record as “exhibit TDP2 degrading activity”.
As for `N#Cc1ccc(-c2ccc(/C=N\OCc3ccc(-c4nc5cc(-c6ccccc6)ccn5c4Nc4ccc(C(=O)O)cc4)cc3)cc2)nc1` [XZ708, (Z)-4-((2-(4-((((4-(5-Cyanopyridin-2-yl)benzylidene)amino)oxy)methyl)phenyl)-7-phenylimidazo[1,2-a]pyridin-3-yl)amino)benzoic acid], the half-maximal inhibitory concentration (IC50) at TDP2 [1] (setting [6]) is over 100 µM. For the same compound, the synergy with camptothecin entry in experiment [5] is given as “exhibit synergy with camptothecin”. The “FC (fold change)” value at TDP1 [3] (setting [7]) is recorded as over 18.
As to `N#Cc1ccc(-c2ccc(CO/N=C/c3ccc(-c4nc5cc(-c6ccccc6)ccn5c4Nc4ccc(C(=O)O)cc4)cc3)cc2)nc1` [XZ725], the values for the IC50 on TDP2 [1] (setting [8]) and at TDP1 [3] (setting [9]) were over 100 µM and 25.6 ± 4.05 µM, respectively. In addition, at TDP1 [2], the TDP1 degrading activity result was “exhibit TDP1 degrading activity”. The synergy with camptothecin entry in experiment [5] is given as “exhibit synergy with camptothecin”.
Regarding `O=C(O)c1ccc(Nc2c(-c3ccccc3)nc3ccccn23)cc1` [XZ615], the IC50 on TDP2 [1] (setting [6]) and at TDP2 [1] (setting [8]) was over 100 µM each time. The “TDP1 degradation in cells” value on TDP1 [2] was “does not”. Also, the TDP1 degrading activity entry on TDP1 [2] is reported as “exhibit TDP1 degrading activity”.
Turning to `O=C(O)c1ccc(Nc2c(-c3ccccc3)nc3cc(-c4ccccc4)ccn23)cc1` [XZ664, 4-((2,7-Diphenylimidazo[1,2-a]pyridin-3-yl)amino)benzoic acid], the IC50 was over 100 µM on TDP2 [1] (Table 3, read-out: TDP2 IC50); over 100 µM at TDP2 [1] (setting [6]); over 100 µM on TDP2 [1] (setting [8]). The “TDP1 degradation in cells” value at TDP1 [2] was “shows TDP1 degradation”. Moreover, the TDP1 degrading activity entry on TDP1 [2] is given as “exhibit TDP1 degrading activity”. Moreover, the “Synergy Score” value in experiment [5] was 9.1.
Take “4-((2-(4-(2-((4-(5-((λ^2-Azaneylidene)-λ^3-methyl)pyridin-2-yl)phenyl)methoxy)ethyl)phenyl)imidazo[1,2-a]pyridin-3-yl)amino)benzoic acid [XZ727]”: on TDP2 [1] (setting [8]), the IC50 turned out to be 70.5 ± 13.5 µM. The TDP2 degrading activity result on TDP2 [4] was “exhibit TDP2 degrading activity”.
`O=S(=O)(F)c1ccc(Nc2c(-c3ccccc3)nc3ccccn23)cc1` [XZ734, 4-((2-Phenylimidazo[1,2-a]pyridin-3-yl)amino)benzenesulfonyl fluoride]: on TDP2 [1] (setting [10]), the IC50 was over 100 µM. At TDP1 [2], the “TDP1 degradation by covalent inhibitors” value was “degrade TDP1” and the TDP1 degrading activity result is given as “exhibit TDP1 degrading activity”. Further, the IC50 on TDP1 [3] (setting [11]) is over 100 µM.
On to `N#Cc1ccc(-c2ccc(Cn3cc(-c4ccc5nc(-c6ccccc6)c(Nc6ccc(C(=O)O)cc6)n5c4)nn3)cc2)nc1` [XZ723, 4-((6-(1-(4-(5-Cyanopyridin-2-yl)benzyl)-1H-1,2,3-triazol-4-yl)-2-phenylimidazo[1,2-a]pyridin-3-yl)amino)benzoic acid], for which the IC50 at TDP2 [1] (setting [8]) was 69.1 ± 11.8 µM; on TDP1 [3] (setting [9]), 66.4 ± 3.7 µM. Also, on TDP1 [3] (setting [12]), the “FC (fold change)” value was 1. Further, the TDP2 degrading activity entry on TDP2 [4] is “exhibit TDP2 degrading activity”.
Consider `O=C(O)c1ccc(Nc2c(-c3ccc(CO/N=C/c4ccc(-c5cnccn5)cc4)cc3)nc3cc(-c4ccccc4)ccn23)cc1` [XZ702, (E)-4-((7-Phenyl-2-(4-((((4-(pyrazin-2-yl)benzylidene)amino)oxy)methyl)phenyl)imidazo[1,2-a]pyridin-3-yl)amino)benzoic acid], for which the IC50 was 8.8 ± 2.9 µM on TDP2 [1] (setting [6]), 8.8 ± 2.9 µM on TDP2 [1] (setting [13]) and 3.1 ± 0.5 µM at TDP1 [3] (setting [14]). Besides, the synergy with camptothecin entry in experiment [5] was “exhibit synergy with camptothecin”. The “FC (fold change)” value on TDP1 [3] (setting [7]) is 3. Besides, the TDP2 degrading activity entry on TDP2 [4] is “exhibit TDP2 degrading activity”.
For the compound `N#Cc1ccc(-c2ccc(CO/N=C/c3ccc(-c4nc5ccccn5c4Nc4ccc(C(=O)O)cc4)cc3)cc2)nc1` [XZ724], the IC50 at TDP2 [1] (setting [8]) and at TDP1 [3] (setting [9]) was over 100 µM throughout. For the same compound, the TDP1 degrading activity result at TDP1 [2] was “exhibit TDP1 degrading activity”.
`O=C(O)c1ccc(Nc2c(-c3ccc(CO/N=C/c4ccc(N5CCCC5=O)cc4)cc3)nc3cc(-c4ccccc4)ccn23)cc1` [XZ703, (E)-4-((2-(4-((((4-(2-Oxopyrrolidin-1-yl)benzylidene)amino)oxy)methyl)phenyl)-7-phenylimidazo[1,2-a]pyridin-3-yl)amino)benzoic acid]: the IC50 at TDP2 [1] (setting [6]) was 10.9 ± 1.1 µM; at TDP2 [1] (setting [13]), about 10 µM; on TDP1 [3] (setting [14]), about 10 µM. Besides, at TDP1 [3] (setting [7]), the “FC (fold change)” value amounted to 1. Also, at TDP2 [4], the TDP2 degrading activity entry is on record as “exhibit TDP2 degrading activity”.
As for `O=C(O)c1ccc(Nc2c(-c3ccccc3)nc3cnccn23)cc1` [Compound 7b, 4-((2-Phenylimidazo[1,2-a]pyrazin-3-yl)amino)benzoic acid], the IC50 on TDP2 [1] (Table 3, read-out: TDP2 IC50) is over 100 µM. Moreover, in experiment [5], the “Synergy Score” value is reported as 3.
For the compound `N#Cc1ccc(-c2ccc(Cn3cc(-c4ccc(-c5nc6ccccn6c5Nc5ccc(C(=O)O)cc5)cc4)nn3)cc2)nc1` [XZ719, 4-((2-(4-(1-(4-(5-Cyanopyridin-2-yl)benzyl)-1H-1,2,3-triazol-4-yl)phenyl)imidazo[1,2-a]pyridin-3-yl)amino)benzoic acid], the IC50 at TDP2 [1] (setting [8]) is 62.4 ± 18.6 µM; on TDP1 [3] (setting [9]), 21.6 ± 5 µM. Further, the synergy with camptothecin result in experiment [5] was “exhibit synergy with camptothecin”. Further, the “FC (fold change)” value on TDP1 [3] (setting [12]) is listed as 3. For the same compound, at TDP2 [4], the TDP2 degrading activity entry is listed as “exhibit TDP2 degrading activity”.
On to `N#Cc1ccc(-c2ccc(/C=N/OCc3ccc4nc(-c5ccccc5)c(Nc5ccc(C(=O)O)cc5)n4c3)cc2)nc1` [XZ706, (E)-4-((6-((((4-(5-cyanopyridin-2-yl)benzylidene)amino)oxy)methyl)-2-phenylimidazo[1,2-a]pyridin-3-yl)amino)benzoic acid], for which the IC50 on TDP2 [1] (setting [6]) was determined as 62.1 ± 10.1 µM; at TDP1 [3] (Table 7, HPLC-purified oxime leads, read-out: TDP1 IC50), 17.4 ± 3.2 µM. Also, the synergy with camptothecin result in experiment [5] is reported as “exhibit synergy with camptothecin”. At TDP1 [3] (setting [7]), the “FC (fold change)” value is given as 4. For the same compound, the “loss of TDP1 potency relative to 102” value at TDP1 [3] (fold loss versus 102) is on record as “about 2 fold”.
Regarding `O=C(O)c1ccc(N(c2c(-c3ccccc3OS(=O)(=O)F)nc3cc(-c4ccccc4)ccn23)S(=O)(=O)F)cc1` [XZ731, 4-((Fluorosulfonyl)(2-(2-((fluorosulfonyl)oxy)phenyl)-7-phenylimidazo[1,2-a]pyridin-3-yl)amino)benzoic acid], the “inhibition of TDP2, primary screen” value against TDP2 [1] was “inhibition”. The IC50 on TDP2 [1] (setting [10]) is 45.5 µM. Besides, on TDP1 [3], the “inhibition of TDP1, primary screen” value was “inhibition”; the “selectivity compared with TDP2, secondary screen” value amounted to 2 fold; the “inhibition, secondary screen” value was “μM inhibition”. At TDP1 [3] (setting [11]), the concentration for half-maximal inhibition (IC50) turned out to be 22.7 µM. Also, the “inhibition of TDP1, secondary screen” value against TDP1 [3] (room temperature, preincubation 10 minutes) is given as “no inhibition”. Besides, the TDP2 degrading activity entry at TDP2 [4] is “exhibit TDP2 degrading activity”.
In the case of `O=C(O)c1ccc(Nc2c(-c3ccccc3)nc3ccc(OS(=O)(=O)F)cn23)cc1` [XZ732, 4-((6-((Fluorosulfonyl)oxy)-2-phenylimidazo[1,2-a]pyridin-3-VA)amino)benzoic acid], the “inhibition of TDP2, primary screen” value against TDP2 [1] was “inhibition”. Besides, the figures for the IC50 at TDP2 [1] (setting [10]) and at TDP1 [3] (setting [11]) were 65.8 µM and over 100 µM, respectively. Further, the TDP2 degrading activity result on TDP2 [4] is given as “exhibit TDP2 degrading activity”.

The values above are taken from US20250011330A1, “Imidazo[1,2- a]pyrazine and Imidazo[1,2- a]pyridine Based Tyrosyl-DNA Phosphodiesterase I (TDP1) Inhibitors” (The USA, As Represented by the Secretary, Department of …, priority 2021, published 2025).
